Where two headings read alike, the source gives them in different places. Where a SMILES comes first, the peptide text is derived from it. [ ]: non-standard residue; d: D form. The star is where a group is joined. DOTA = O=C(O)CN1CCN(CC(=O)O)CCN(CC(=O)*)CCN(CC(=O)O)CC1; 1Nal = N[C@@H](Cc1cccc2ccccc12)C(=O)O; NMeNle = CCCC[C@H](NC)C(=O)O
What was measured:
[1] = In vitro stability in human serum (intact radiopeptide by radio-HPLC); format: in vitro ADME; settings: fresh human serum, 37 °C, n = 2
Experimental: In vitro stability studies were performed in human serum (n = 2). The radiolabeled peptides (1000 pmol/mL) were incubated at 37 °C and a sample of 100 μL was taken at 1, 4, and 24 h after incubation. After the precipitation of proteins with ACN at 1:1.5 (v/v), centrifugation (14,000 rpm, 2 min, centrifuge 5424, Eppendorf AG, Germany) and dilution with water at 1:1 (v/v), an aliquot of 100 μL of this solution was analyzed by HPLC. Radioligand breakdown was monitored and the percentage of intact radiopeptide was calculated using Chromeleon Dionex Software (Version 7.2.9.11323). Additionally, the radiolabeled peptides (1000 pmol/mL) were incubated in PBS (n = 1) at room temperature to confirm the complex stability as a control.

[2] = Biodistribution in BALB/c nude mice bearing A431-CCK2R/A431-mock xenografts; format: in vivo; settings: female, athymic BALB/c nude, mouse, iv, 20 pmol, total radioactivity, ~20 pmol, 4 h p.i. (indium-111 or lutetium-177), mean ± SD n = 4; for tissue to tissue ratio at 4 h: BALB/c nude mice; for tissue uptake at 4 h: xenografted BALB/c nude mice, i.v.
Experimental: The overall biodistribution and tumor targeting properties of selected radiolabeled peptides were evaluated in female athymic BALB/c nude mice (Charles River, Sulzfeld, Germany, age of 7 to 9 weeks). After tumor induction with 2 × 10^6 A431-CCK2R or A431-mock cells (subcutaneously injected in 200 μL DMEM into the right and left flank) and a waiting period of 10–14 days (sufficient to achieve tumors of ∼0.25 g), mice were randomly divided into groups of four and treated with a bolus injection of 150 µL of the injectable solution containing the radiolabeled peptide via a lateral tail vein to achieve an injected radioactivity of 150–200 kBq and a total injected peptide amount of ~20 pmol (n = 4 for each radiopeptide). For DOTA-[(N-Me)1Nal^8]MGS5, additional biodistribution studies were performed with gallium-68 (~0.5 MBq, 20 pmol) and lutetium-177 (~0.5 MBq, 20 pmol). The animals were euthanatized by cervical dislocation at 1 h (gallium-68) or 4 h p.i. (indium-111/ lutetium-177). The tumors and other tissues (blood, lung, heart, muscle, spleen, intestine, liver, kidney, stomach, and pancreas) were dissected, weighed, and the radioactivity measured in the γ-counter. The rest of the body and a standard of the solution injected was also measured together with the collected samples. The percentage of injected activity per gram of tissue (% IA/g) and the tumor-to-organ activity ratio of selected tissues were calculated for each mouse and time point studied. Origin software (Microcal Origin 6.1, Northampton, MA, USA) was used for statistical analysis (independent t-test for two populations; significance level p < 0.05).

[3] = Distribution coefficient (LogD) in octanol/PBS; format: physicochemical; settings: radiolabeled peptide (111In-labeled where the label names no radiometal), shake-flask octanol/PBS, 100 pmol/mL, 15 min shaking at 1500 rpm, γ-counter, mean ± SD, n = 8
Experimental: The distribution coefficient (LogD) in octanol/PBS was determined by mixing 0.5 mL of the radiolabeled DOTA peptides diluted in PBS (100 pmol/mL) and 0.5 mL octanol in a 1.5 mL microcentrifuge tube (n = 8). After shaking for 15 min (MS3 Basic, IKA, Staufen, Germany) at 1500 rpm and a waiting time of 10 min to ensure appropriate separation of the two phases, 100 µL aliquots of each phase were pipetted into 4.5 mL tubes. The tubes were measured using a γ-counter (2480 Wizard2 3″, PerkinElmer Life Sciences and Analytical Instruments, formerly Wallac Oy, Turku, Finland) and the LogD value was determined using following equation: LogD=Log(cpmoctanol phase/cpmPBS phase)

[4] = Binding to serum proteins (incubation in human serum, Sephadex G-50 size exclusion chromatography); format: in vitro ADME; settings: radiolabeled peptide (111In where no radiometal named), 37 °C, 24 h after incubation, Sephadex G-50, γ-counter, n = 2
Experimental: Protein binding was determined by incubation of the radiolabeled peptides in human serum at 37 °C (500 pmol/mL, n = 2). For the time points of 1, 4, and 24 h after incubation, samples of 25 µL were subjected to Sephadex G-50 size exclusion chromatography (GE Healthcare Illustra, Little Chalfont, UK). The column and the eluate were measured using the γ-counter and the percentage of protein binding was calculated.

[5] = radiolabeled peptide (111In where no radiometal named), 24 h after incubation
[6] = A431-CCK2R xenograft / blood, A431-CCK2R xenograft, read-out: tumor-to-organ ratio: blood
[7] = A431-CCK2R xenograft / kidney, A431-CCK2R xenograft, read-out: tumor-to-organ ratio: kidney
[8] = A431-CCK2R xenograft / stomach, A431-CCK2R xenograft, read-out: tumor-to-organ ratio: stomach
[9] = A431-mock xenograft, read-out: Uptake in A431-mock xenograft
[10] = blood, read-out: Uptake in blood
[11] = heart, read-out: Uptake in heart
[12] = intestine, read-out: Uptake in intestine
[13] = kidneys, read-out: Uptake in kidneys
[14] = liver, read-out: Uptake in liver
[15] = muscle, read-out: Uptake in muscle
[16] = spleen, read-out: Uptake in spleen
[17] = A431-CCK2R xenograft, read-out: Uptake in A431-CCK2R xenograft
[18] = pancreas, read-out: Uptake in pancreas
[19] = stomach, read-out: Uptake in stomach

Structure (SMILES) | remaining at 24 h, 1000 pmol/mL [1, 5] [%] | tissue to tissue ratio at 4 h [2, 6] | tissue to tissue ratio at 4 h [2, 7] | tissue to tissue ratio at 4 h [2, 8] | tissue uptake at 4 h [2, 9] [%ID/g] | tissue uptake at 4 h [2, 10] [%ID/g] | tissue uptake at 4 h [2, 11] [%ID/g] | tissue uptake at 4 h [2, 12] [%ID/g] | tissue uptake at 4 h [2, 13] [%ID/g] | tissue uptake at 4 h [2, 14] [%ID/g] | tissue uptake at 4 h ([2]; lung, read-out: Uptake in lung) [%ID/g] | tissue uptake at 4 h [2, 15] [%ID/g] | tissue uptake at 4 h [2, 16] [%ID/g] | LogD ([3]; read-out: LogD) | tissue uptake at 4 h [2, 17] [%ID/g] | tissue uptake at 4 h [2, 18] [%ID/g] | tissue uptake at 4 h [2, 19] [%ID/g] | also measured
CCCC[C@@H](C(=O)N[C@@H](CC(=O)O)C(=O)N[C@@H](Cc1ccccc1)C(N)=O)N(C)C(=O)[C@H](Cc1c[nH]c2ccccc12)NC(=O)CNC(=O)[C@H](Cc1ccc(O)cc1)NC(=O)[C@H](C)NC(=O)[C@@H](CCC(=O)O)NC(=O)CN1CCN(CC(=O)O)CCN(CC(=O)O)CCN(CC(=O)O)CC1 [DOTA-[Phe^8]MGS5] ({DOTA}-[dE]AYGW[NMeNle]DF-NH2) | – | – | – | – | – | – | – | – | – | – | – | – | – | – | – | – | – | LogD [3]: −3.2 ± 0.1; Binding to Serum Proteins (%) ([4]; 500 pmol/mL): 20.2 ± 1.6%; Intact Radiopeptide in Human Serum (%) ([1]; radiolabeled peptide (111In where no radiometal named), 1000 pmol/mL, 24 h after incubation): 54.0 ± 0.8%
CCCC[C@@H](C(=O)N[C@@H](CC(=O)O)C(=O)N[C@@H](Cc1cccc2ccccc12)C(N)=O)N(C)C(=O)[C@H](Cc1c[nH]c2ccccc12)NC(=O)CNC(=O)[C@H](Cc1ccc(O)cc1)NC(=O)[C@H](C)NC(=O)[C@@H](CCCCN)NC(=O)CN1CCN(CC(=O)O)CCN(CC(=O)O)CCN(CC(=O)O)CC1 [[^111In]In-DOTA-[DLys^1]MGS5, metal not drawn] ({DOTA}-[dK]AYGW[NMeNle]D[1Nal]-NH2) | – | 176 ± 31.9 | < 2 | 4.69 ± 1.19 | 0.56 ± 0.27 | 0.2 ± 0.09 | 0.22 ± 0.06 | 1.96 ± 0.87 | ~20 | 1.94 ± 0.52 | 0.3 ± 0.11 | 0.13 ± 0.05 | 0.54 ± 0.12 | -1.31 ± 0.11 | 33.9 ± 9.53 | 2.27 ± 1.2 | 7.73 ± 3.49 | –
CCCC[C@@H](C(=O)N[C@@H](CC(=O)O)C(=O)N[C@@H](Cc1ccc2ccccc2c1)C(N)=O)N(C)C(=O)[C@H](Cc1c[nH]c2ccccc12)NC(=O)CNC(=O)[C@H](Cc1ccc(O)cc1)NC(=O)[C@H](C)NC(=O)[C@@H](CCC(=O)O)NC(=O)CN1CCN(CC(=O)O)CCN(CC(=O)O)CCN(CC(=O)O)CC1 [[^111In]In-DOTA-[2Nal^8]MGS5, metal not drawn] | > 90 | 399 ± 89.6 | 6.04 ± 0.87 | 3.66 ± 0.64 | 0.17 ± 0.04 | 0.06 ± 0.003 | 0.08 ± 0.01 | 0.95 ± 0.26 | 4.21 ± 0.29 | 0.66 ± 0.07 | 0.13 ± 0.03 | 0.04 ± 0.01 | 0.18 ± 0.05 | -1.71 ± 0.19 | 25.4 ± 4.45 | 1.84 ± 0.52 | 7.03 ± 1.1 | –

Now from value to compound, other results behind:

remaining at 24 h, 1000 pmol/mL [1, 5] [%] | tissue to tissue ratio at 4 h [2, 6] | tissue to tissue ratio at 4 h [2, 7] | tissue to tissue ratio at 4 h [2, 8] | tissue uptake at 4 h [2, 9] [%ID/g] | tissue uptake at 4 h [2, 10] [%ID/g] | tissue uptake at 4 h [2, 11] [%ID/g] | tissue uptake at 4 h [2, 12] [%ID/g] | tissue uptake at 4 h [2, 13] [%ID/g] | tissue uptake at 4 h [2, 14] [%ID/g] | tissue uptake at 4 h ([2]; lung, read-out: Uptake in lung) [%ID/g] | tissue uptake at 4 h [2, 15] [%ID/g] | tissue uptake at 4 h [2, 16] [%ID/g] | LogD ([3]; read-out: LogD) | tissue uptake at 4 h [2, 17] [%ID/g] | tissue uptake at 4 h [2, 18] [%ID/g] | tissue uptake at 4 h [2, 19] [%ID/g] | Structure (SMILES) | also measured
99.6 ± 0.1 | 281 ± 88.5 | 7.55 ± 0.48 | 11.5 ± 1.82 | 0.38 ± 0.08 | 0.19 ± 0.07 | 0.14 ± 0.03 | 0.81 ± 0.1 | 6.33 ± 0.89 | 1.39 ± 0.16 | 0.21 ± 0.07 | 0.12 ± 0.05 | 0.32 ± 0.05 | – | – | – | – | CCCC[C@@H](C(=O)N[C@@H](CC(=O)O)C(=O)N(C)[C@@H](Cc1cccc2ccccc12)C(N)=O)N(C)C(=O)[C@H](Cc1c[nH]c2ccccc12)NC(=O)CNC(=O)[C@H](Cc1ccc(O)cc1)NC(=O)[C@H](C)NC(=O)[C@@H](CCC(=O)O)NC(=O)CN1CCN(CC(=O)O)CCN(CC(=O)O)CCN(CC(=O)O)CC1 [[^111In]In-DOTA-[(N-Me)1Nal^8]MGS5, metal not drawn] | remaining at 4 h, 1000 pmol/mL ([1]; human, radiolabeled peptide, 4 h after incubation): 99.3 ± 0.9%
– | 69.9 ± 38.3 | – | 4.33 ± 0.56 | 0.19 ± 0.08 | 0.08 ± 0.07 | 0.06 ± 0.02 | 0.59 ± 0.46 | 4.42 ± 1.15 | 0.36 ± 0.11 | 0.07 ± 0.01 | 0.04 ± 0.02 | 0.13 ± 0.02 | -2.33 ± 0.23 | 4.16 ± 1.01 | 0.4 ± 0.04 | 0.96 ± 0.17 | CCCC[C@@H](C(=O)N[C@@H](CC(=O)O)C(=O)N[C@@H](Cc1cccc2ccccc12)C(=O)NC)N(C)C(=O)[C@H](Cc1c[nH]c2ccccc12)NC(=O)CNC(=O)[C@H](Cc1ccc(O)cc1)NC(=O)[C@H](C)NC(=O)[C@@H](CCC(=O)O)NC(=O)CN1CCN(CC(=O)O)CCN(CC(=O)O)CCN(CC(=O)O)CC1 [[^111In]In-DOTA-MGS5[NHCH3], metal not drawn] | fraction unbound at 24 h, 500 pmol/mL [4]: 0.591
